Molecular target: human PDE5 (Homo sapiens, UniProt O76074)
Experiment: PDE5 inhibition, IMAP fluorescence polarization phosphodiesterase assay
Format: biochemical
Details: for inhibition at 10 µM: read-out: % PDE5 inhibition at 10 μM

SMILES | inhibition at 10 µM [%] | IC50 [nM] | % PDE5 inhibition at 10 μM (10 μM, triplicate) [%]
COC(=O)[C@H]1Cc2c([nH]c3ccccc23)[C@@H](c2ccc(Br)cc2)N1 [Compound 1, Methyl (1R,3R)-1-(4-bromophenyl)-2,3,4,9-tetrahydro-1H-β-carboline-3-carboxylate] | 10 | – | –
COC(=O)[C@H]1Cc2c([nH]c3ccccc23)[C@H](c2ccc(Br)cc2)N1 [Compound 2, Methyl (1S,3R)-1-(4-bromophenyl)-2,3,4,9-tetrahydro-1H-β-carboline-3-carboxylate] | 10 | – | –
COC(=O)[C@@H]1Cc2c([nH]c3ccccc23)[C@H](c2ccc(Br)cc2)N1 [Compound 3, Methyl (1S,3S)-1-(4-bromophenyl)-2,3,4,9-tetrahydro-1H-β-carboline-3-carboxylate] | 17 | – | –
COC(=O)[C@@H]1Cc2c([nH]c3ccccc23)[C@@H](c2ccc(Br)cc2)N1 [Compound 4, Methyl (1R,3S)-1-(4-bromophenyl)-2,3,4,9-tetrahydro-1H-β-carboline-3-carboxylate] | 75 | 4200 | –
CCN1C(=O)[C@H]2Cc3c([nH]c4ccccc34)[C@@H](c3ccc(Br)cc3)N2C1=O [Compound 5, (5R,11aR)-5-(4-Bromophenyl)-2-ethyl-5,6,11,11a-tetrahydro-1H-imidazo[1′,5′:1,6]pyrido[3,4-b]indole-1,3(2H)-dione] | 94.4 | 2800 | –
CCN1C(=O)[C@H]2Cc3c([nH]c4ccccc34)[C@H](c3ccc(Br)cc3)N2C1=O [Compound 6, (5S,11aR)-5-(4-Bromophenyl)-2-ethyl-5,6,11,11a-tetrahydro-1H-imidazo[1′,5′:1,6]pyrido[3,4-b]indole-1,3(2H)-dione] | 89.3 | 3900 | –
CCN1C(=O)[C@@H]2Cc3c([nH]c4ccccc34)[C@H](c3ccc(Br)cc3)N2C1=O [Compound 7, (5S,11aS)-5-(4-Bromophenyl)-2-ethyl-5,6,11,11a-tetrahydro-1H-imidazo[1′,5′:1,6]pyrido[3,4-b]indole-1,3(2H)-dione] | 79.8 | – | –
CCCCN1C(=O)[C@H]2Cc3c([nH]c4ccccc34)[C@@H](c3ccc(Br)cc3)N2C1=O [Compound 9, (5R,11aR)-5-(4-Bromophenyl)-2-butyl-5,6,11,11a-tetrahydro-1H-imidazo[1′,5′:1,6]pyrido[3,4-b]indole-1,3(2H)-dione] | 98.7 | 230 | –
CCCCN1C(=O)[C@H]2Cc3c([nH]c4ccccc34)[C@H](c3ccc(Br)cc3)N2C1=O [Compound 10, (5S,11aR)-5-(4-Bromophenyl)-2-butyl-5,6,11,11a-tetrahydro-1H-imidazo[1′,5′:1,6]pyrido[3,4-b]indole-1,3(2H)-dione] | 72.1 | > 10000 | –
CCCCN1C(=O)[C@@H]2Cc3c([nH]c4ccccc34)[C@H](c3ccc(Br)cc3)N2C1=O [Compound 11, (5S,11aS)-5-(4-Bromophenyl)-2-butyl-5,6,11,11a-tetrahydro-1H-imidazo[1′,5′:1,6]pyrido[3,4-b]indole-1,3(2H)-dione] | 81.5 | > 10000 | –
CCCCN1C(=O)[C@@H]2Cc3c([nH]c4ccccc34)[C@@H](c3ccc(Br)cc3)N2C1=O [Compound 12, (5R,11aS)-5-(4-Bromophenyl)-2-butyl-5,6,11,11a-tetrahydro-1H-imidazo[1′,5′:1,6]pyrido[3,4-b]indole-1,3(2H)-dione] | 106 | – | –
CCC(C)N1C(=O)[C@H]2Cc3c([nH]c4ccccc34)[C@@H](c3ccc(Br)cc3)N2C1=O (stereo partly drawn) [Compound 13, (5R,11aR)-5-(4-Bromophenyl)-2-sec-butyl-5,6,11,11a-tetrahydro-1H-imidazo[1′,5′:1,6]pyrido[3,4-b]indole-1,3(2H)-dione] | 83 | 370 | –
CCC(C)N1C(=O)[C@H]2Cc3c([nH]c4ccccc34)[C@H](c3ccc(Br)cc3)N2C1=O (stereo partly drawn) [Compound 14, (5S,11aR)-5-(4-Bromophenyl)-2-sec-butyl-5,6,11,11a-tetrahydro-1H-imidazo[1′,5′:1,6]pyrido[3,4-b]indole-1,3(2H)-dione] | 67 | 6000 | –
CCC(C)N1C(=O)[C@@H]2Cc3c([nH]c4ccccc34)[C@H](c3ccc(Br)cc3)N2C1=O (stereo partly drawn) [Compound 15, (5S,11aS)-5-(4-Bromophenyl)-2-sec-butyl-5,6,11,11a-tetrahydro-1H-imidazo[1′,5′:1,6]pyrido[3,4-b]indole-1,3(2H)-dione] | 72 | 3300 | –
CCC(C)N1C(=O)[C@@H]2Cc3c([nH]c4ccccc34)[C@@H](c3ccc(Br)cc3)N2C1=O (stereo partly drawn) [Compound 16, (5R,11aS)-5-(4-Bromophenyl)-2-sec-butyl-5,6,11,11a-tetrahydro-1H-imidazo[1′,5′:1,6]pyrido[3,4-b]indole-1,3(2H)-dione] | 92 | 150 | –
CC(C)(C)N1C(=O)[C@H]2Cc3c([nH]c4ccccc34)[C@@H](c3ccc(Br)cc3)N2C1=O [Compound 17, (5R,11aR)-5-(4-Bromophenyl)-2-tert-butyl-5,6,11,11a-tetrahydro-1H-imidazo[1′,5′:1,6]pyrido[3,4-b]indole-1,3(2H)-dione] | 91 | 270 | –

SMILES | inhibition at 10 µM [%] | IC50 [nM] | % PDE5 inhibition at 10 μM (10 μM, triplicate) [%]
CC(C)(C)N1C(=O)[C@H]2Cc3c([nH]c4ccccc34)[C@H](c3ccc(Br)cc3)N2C1=O [Compound 18, (5S,11aR)-5-(4-Bromophenyl)-2-tert-butyl-5,6,11,11a-tetrahydro-1H-imidazo[1′,5′:1,6]pyrido[3,4-b]indole-1,3(2H)-dione] | 78 | 2200 | –
CC(C)(C)N1C(=O)[C@@H]2Cc3c([nH]c4ccccc34)[C@H](c3ccc(Br)cc3)N2C1=O [Compound 19, (5S,11aS)-5-(4-Bromophenyl)-2-tert-butyl-5-(4-bromophenyl)-5,6,11,11a-tetrahydro-1H-imidazo[1′,5′:1,6]pyrido[3,4-b]indole-1,3(2H)-dione] | – | – | 38
CC(C)(C)N1C(=O)[C@@H]2Cc3c([nH]c4ccccc34)[C@@H](c3ccc(Br)cc3)N2C1=O [Compound 20, (5R,11aS)-5-(4-Bromophenyl)-2-tert-butyl-5,6,11,11a-tetrahydro-1H-imidazo[1′,5′:1,6]pyrido[3,4-b]indole-1,3(2H)-dione] | 94 | 270 | –
COC(=O)[C@H]1Cc2c([nH]c3ccccc23)[C@@H](c2ccc(Br)cc2)N1C(=O)CCl [Compound 21, Methyl (1R,3R)-1-(4-bromophenyl)-2-(chloroacetyl)-2,3,4,9-tetrahydro-1H-β-carboline-3-carboxylate] | 25 | > 10000 | –
COC(=O)[C@@H]1Cc2c([nH]c3ccccc23)[C@H](c2ccc(Br)cc2)N1C(=O)CCl [Compound 23, Methyl (1S,3S)-1-(4-bromophenyl)-2-(2-chloroacetyl)-2,3,4,9-tetrahydro-1H-β-carboline-3-carboxylate] | 19 | > 10000 | –
CN1CC(=O)N2[C@@H](c3ccc(Br)cc3)c3[nH]c4ccccc4c3C[C@@H]2C1=O [Compound 26, (6S,12aR)-6-(4-Bromophenyl)-2-methyl-2,3,6,7,12,12a-hexahydropyrazino [1′,2′:1,6]pyrido[3,4-b]indole-1,4-dione] | 94 | 6600 | –
CN1CC(=O)N2[C@@H](c3ccc(Br)cc3)c3[nH]c4ccccc4c3C[C@H]2C1=O [Compound 27, (6S,12aS)-6-(4-Bromophenyl)-2-methyl-2,3,6,7,12,12a-hexahydropyrazino [1′,2′:1,6]pyrido[3,4-b]indole-1,4-dione] | 87 | 1900 | –
CCN1CC(=O)N2[C@@H](c3ccc(Br)cc3)c3[nH]c4ccccc4c3C[C@@H]2C1=O [Compound 30, (6S,12aR)-2-Ethyl-6-(4-bromophenyl)-2,3,6,7,12,12a-hexahydropyrazino [1′,2′:1,6]pyrido[3,4-b]indole-1,4-dione] | 97.9 | 1900 | –
CCN1CC(=O)N2[C@@H](c3ccc(Br)cc3)c3[nH]c4ccccc4c3C[C@H]2C1=O [Compound 31, (6S,12aS)-2-Ethyl-6-(4-bromophenyl)-2,3,6,7,12,12a-hexahydropyrazino [1′,2′:1,6]pyrido[3,4-b]indole-1,4-dione] | 83 | 220 | –
CCN1CC(=O)N2[C@H](c3ccc(Br)cc3)c3[nH]c4ccccc4c3C[C@H]2C1=O [Compound 32, (6R,12aS)-2-Ethyl-6-(4-bromophenyl)-2,3,6,7,12,12a-hexahydropyrazino [1′,2′:1,6]pyrido[3,4-b]indole-1,4-dione] | 98.7 | < 10 | –
CCCCN1CC(=O)N2[C@@H](c3ccc(Br)cc3)c3[nH]c4ccccc4c3C[C@@H]2C1=O [Compound 34, (6S,12aR)-2-Butyl-6-(4-bromophenyl)-2,3,6,7,12,12a-hexahydropyrazino [1′,2′:1,6]pyrido[3,4-b]indole-1,4-dione] | 81.5 | 6600 | –
CCCCN1CC(=O)N2[C@@H](c3ccc(Br)cc3)c3[nH]c4ccccc4c3C[C@H]2C1=O [Compound 35, (6S,12aS)-2-Butyl-6-(4-bromophenyl)-2,3,6,7,12,12a-hexahydropyrazino[1′,2′:1,6]pyrido[3,4-b]indole-1,4-dione] | 80 | 5900 | –
CCCCN1CC(=O)N2[C@H](c3ccc(Br)cc3)c3[nH]c4ccccc4c3C[C@H]2C1=O [Compound 36, (6R,12aS)-2-Butyl-6-(4-bromophenyl)-2,3,6,7,12,12a-hexahydropyrazino [1′,2′:1,6]pyrido[3,4-b]indole-1,4-dione] | 92 | – | –
CC(C)(C)N1CC(=O)N2[C@H](c3ccc(Br)cc3)c3[nH]c4ccccc4c3C[C@@H]2C1=O [Compound 37, (6R,12aR)-6-(4-Bromophenyl)-2-tert-butyl-2,3,6,7,12,12a-hexahydropyrazino [1′,2′:1,6]pyrido[3,4-b]indole-1,4-dione] | 30 | > 10000 | –
CC(C)(C)N1CC(=O)N2[C@@H](c3ccc(Br)cc3)c3[nH]c4ccccc4c3C[C@@H]2C1=O [Compound 38, (6S,12aR)-6-(4-Bromophenyl)-2-tert-butyl-2,3,6,7,12,12a-hexahydropyrazino [1′,2′:1,6]pyrido[3,4-b]indole-1,4-dione] | 27 | – | –

— PMC4994520 (European journal of medicinal chemistry, 2012)
